PubChem BioAssay (NCI)
Several values for one entry are separate records, joined by “and”; a condition that tells them apart may be missing. Equal entries are not always repeated.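 Values below derive from 48-hour exposures of cells grown in 96-well plates, with endpoints linearly interpolated between the two concentrations bracketing the appropriate inhibition level. GI50 marks 50% less growth. TGI is the concentration that stops growth completely.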

Each compound was assayed on MDA-MB-468 breast (assay: NCI-60 cell line screen, 48 h).

Compound | GI50 | TGI
O=C1C(=O)c2c(nc3ccc(Br)cn23)-c2ccccc21 | 1.53 µM | 3.22 µM
COc1ccc(C(=O)c2cc(OC)c(OC)c(OC)c2)cc1/C=C/C(=O)c1ccc(OC)c(OC)c1 | 1.25 µM | 77.7 µM
Clc1cccc(Cl)c1C1CSc2ccccc2N=C1c1ccccc1 (stereo not drawn) | 9.59 µM | 29.2 µM
CS(=O)(=O)Nc1ccc(-c2cc(-c3ccccc3)cc(C(N)=O)c2N)cc1 | 14.5 µM | > 25 µM
NC(=O)c1ccc(NN=O)nc1 | > 100 µM | > 100 µM
Cc1cc(O)ccc1C1=NN(c2ccc(S(C)(=O)=O)cc2)C(=O)CC1 | 11 µM | 44.3 µM
O=C1Nc2c(C(F)(F)F)cccc2[C@@]1(c1ccc(O)cc1)c1ccc(OC(F)(F)F)cc1 | < 0.01 µM | < 0.01 µM
Cc1ccc(-c2cc3c(SCC(=O)Nc4cc(C(F)(F)F)ccc4Cl)nccn3n2)cc1 | > 100 µM | > 100 µM
Nc1nc(OCc2cc(Br)cs2)c2[nH]cnc2n1 | 14 µM | 58.6 µM
COc1cc(-c2nc3ccccc3s2)ccc1NC(=O)COc1ccc(Cl)cc1 | 2.08 µM | 56.6 µM
Nc1ncc(-c2ccc3ncnc(N4CCc5cc(F)c(Cl)cc54)c3c2)cn1 | 0.804 µM | 3.04 µM
CN(Cc1cc(Br)cc(Br)c1O)Cc1cc(Br)cc(Br)c1O | 2.09 µM | 13 µM
O=[N+]([O-])c1ccccc1N/N=C\c1c[nH]c2ccccc12 | 1.13 µM | 5.85 µM
COc1ccc2c(c1)[nH]c(=O)c1c3cc(OC)ccc3cn21 | 0.0393 µM | 1.16 µM
COc1ccc(C(=O)COC(=O)[C@H](C[Se][Se]C[C@H](NC(=O)c2ccc(Br)cc2F)C(=O)OCC(=O)c2ccc(OC)cc2)NC(=O)c2ccc(Br)cc2F)cc1 | 1.72 µM | 3.85 µM
[O-][n+]1ccccc1S | 4.15 µM | 45.2 µM
C=CC(=O)NCc1cccc(Nc2ncc(Br)c(NCCCNC(=O)C3CCC3)n2)c1 | 1.64 µM and 1.02 µM | 4.33 µM and 5 µM
CN(C)c1ccc(N=C2C=CC(=[N+](C)C)C=C2)cc1 | 3.04 µM | 12.2 µM
Cn1cc(C2=C(c3cn(C)c4c([N+](=O)[O-])cccc34)C(=O)NC2=O)c2ccccc21 | > 25 µM | > 25 µM
COc1ccc(C(SCC(N)C(=O)O)(c2ccccc2)c2ccccc2)cc1 (stereo not drawn) | 0.0627 µM | > 78.1 µM
Cc1ccc(-c2cc(C(F)(F)F)nn2-c2ccc(S(N)(=O)=O)cc2)cc1 | 24.2 µM | 90.7 µM
Cc1ccccc1-n1ncc(C(=O)c2ccccc2)c1N | > 25 µM | > 25 µM
c1cc2[nH]ncc2cc1-c1nc2ccc3[nH]ncc3c2c2c1CCCC2 | 0.403 µM | 3.16 µM
CCCCCCCCN(CCCCCCCC)CCCCCCNc1cc(OC)cc2cccnc12 | 3.71 µM | 13.5 µM

Compound | GI50 | TGI
C/C(=C\CCc1ccoc1)CC/C=C(\C)CCCN1CCOCC1 | 2.58 µM | 9.59 µM
CC1(C)CCC2=C(O1)c1ccccc1C(=O)C2=O | 1.68 µM | 3.36 µM
COC(=O)[C@]12CC[C@@H](C)[C@H](C)[C@@H]1C1=CC[C@@H]3[C@@]4(C)C(C=O)=C[C@@](C)(COC(C)=O)C4=CC[C@@]3(C)[C@]1(C)CC2 | 4.21 µM | 17.7 µM
CCCCCCCCCCCCCC1=NCCN1CCO | 2.12 µM | 5.58 µM
Clc1ccc2c(c1)N(c1ncnc3ccc(-c4cnc5[nH]ccc5c4)cc13)CC2 | 0.38 µM | 13.7 µM
O=C(/C(=C\c1ccc([N+](=O)[O-])cc1)S(=O)Cc1ccc(F)cc1)c1ccc(F)cc1 (stereo not drawn) | 2.05 µM | 4.36 µM
CCN1C(=O)N(CC)C2Nn3c(s/c(=C\c4ccccc4Br)c3=O)=NC21 (stereo not drawn) | 1.1 µM | 6.87 µM
CC1=CC(=C(c2ccc(N)cc2)c2ccc(N)cc2)C=CC1=N | 0.373 µM and 0.411 µM | 4.9 µM and 4.3 µM
COc1cc2nc(SCC(=O)Nc3cc(OC)c(OC)c(OC)c3)n(Cc3ccccc3)c(=O)c2cc1OC | 5.72 µM | 20.2 µM
Cc1ccc(C(SCC(N)C(=O)O)(c2ccc(C)cc2)c2ccc(C)cc2)cc1 (stereo not drawn) | 1.46 µM | 16.6 µM
COC1CCN(C(=O)c2cc(Cc3n[nH]c(=O)c4ccccc34)ccc2F)CC1 | 30 µM | > 100 µM
O=C(c1ccccc1)c1ccc(Oc2ccc([N+](=O)[O-])cc2[N+](=O)[O-])cc1 | 1.73 µM | 3.38 µM
Cl.Fc1c[c-]c(-c2ccccn2)c(F)c1.[Pt].c1ccc(P(c2ccccc2)C([PH+](c2ccccc2)c2ccccc2)[PH+](c2ccccc2)c2ccccc2)cc1 | 2.69 µM | 19.5 µM
O=C1c2nsnc2C(=O)c2c(F)c(F)c(F)c(F)c21 | 0.672 µM | 2.32 µM
CCCNNC(=O)c1ccc(-c2ccc(NC(=O)CCCCCCC(=O)N[C@H](C(=O)N3C[C@H](O)C[C@H]3C(=O)N[C@@H](C)c3ccc(-c4scnc4C)cc3)C(C)(C)C)cc2)cc1 | 0.592 µM | 
NC1CCC(Nc2nc(NCc3ccc(-c4cccs4)nc3)c3ncn(C4CCCC4)c3n2)CC1 (stereo not drawn) | < 0.0134 µM | 0.035 µM
Clc1ccc2c(c1)N(CCCN1CCCC1)c1ccccc1S2 | 2.75 µM | 8.05 µM
CC(=O)c1cc(C(=O)c2ccc3c(c2)Sc2ccccc2N3)c2c(C)cc(C)cn12 | 0.496 µM | > 100 µM
Nc1nc2c(s1)CCc1c-2c(Br)n(Cc2ccccc2)c1Br | 2.84 µM | 17.2 µM
O=C1NC(=O)C(=C/C=C/c2ccccc2)C(=O)N1 | 2.99 µM | 10.1 µM
C[C@H](Nc1ncnc2nc[nH]c12)c1cc2ccc(F)cc2nc1-c1ccccn1 | 31.9 µM | > 100 µM
CC(C)(C)C(=O)OCOP(=O)(OCOC(=O)C(C)(C)C)C1CC(O)N(O)C1=O (stereo not drawn) | 5.84 µM | > 100 µM
CCOC(=O)n1cc(C2=C(c3cn(C)c4ccccc34)COC2=O)c2ccccc21 | 0.053 µM | > 100 µM
